The source of these data is patent publication US20060106038A1, “Methods for treating and/or preventing aberrant proliferation of hematopoietic cells” (ICOS CORPORATION, priority 2004, published 2006).

Test [1] concerns myeloid and erythroid colony formation. As to the kind of experiment: Methylcellulose clonogenic assay. It counts as cell-based. The note with it: PI3Kδ selective inhibitor at 10 μM.
Test [2] concerns AML cells. Briefly: Cell proliferation assay, [3H]-Thymidine incorporation, AML cells. The following applies: Homo sapiens, 48 h, PI3Kδ selective inhibitor 10 μM, rapamycin 50 ng/ml. It counts as cell-based. How it is done: Cell proliferation assays were conducted to determine whether PI3K inhibition contributes to AML cell viability. In most PI3K-positive samples tested, the mTOR pathway was activated as assessed by phosphorylation of P70S6K protein on Threonine 389. Thus, proliferation assays were also conducted to determine whether mTOR contributes to AML cell viability. Accordingly, proliferation assays were performed on AML cells with or without the following inhibitor compounds: LY294002, a PI3Kδ selective inhibitor, rapamycin, or a combination of the PI3Kδ selective inhibitor and rapamycin. Cell proliferation was determined by measuring DNA synthesis by [3H]-Thymidine incorporation. Comparative experiments were performed on CD34+ cord blood cells.
For AML cells (obtained as previously described in Example 1), BMMCs were cultured at 3×10^5/ml in alpha medium containing 5% fetal calf serum (FCS) without cytokines for 48 hours, with or without the following inhibitors: LY294002 at 25 μM, PI3Kδ selective inhibitor at 10 μM, rapamycin at 50 ng/ml, or an association of a PI3Kδ selective inhibitor and rapamycin, and incubated in 96-well plates in triplicate. [^3H]-Thymidine was added for a final 6 hour pulse, and the amount of radioactivity incorporated in cells was determined by trichloracetic acid (TCA) precipitation. […] DNA synthesis was measured by [^3H]-Thymidine incorporation after […].

Each structure is given as a SMILES string. Where two headings read alike, the source gives them in different places.

`O=c1cc(N2CCOCC2)oc2c(-c3ccccc3)cccc12` [LY294002] came in with an inhibition at 10 µM in test [1] of 95%.
Consider `CO[C@H]1C[C@@H]2CC[C@@H](C)[C@@](O)(O2)C(=O)C(=O)N2CCCC[C@H]2C(=O)O[C@H]([C@H](C)C[C@@H]2CC[C@@H](O)[C@H](OC)C2)CC(=O)[C@H](C)/C=C(\C)[C@@H](O)[C@@H](OC)C(=O)[C@H](C)C[C@H](C)/C=C/C=C/C=C/1C` [rapamycin], for which the inhibition at 10 µM in test [2] (PI3K-positive AML samples, read-out: inhibition of proliferation of leukemic cells) turned out to be 64%; in test [2] (representative PI3K-negative AML cell sample, read-out: inhibition of proliferation of leukemic cells (mean values)) it was 29%.
